From PubChem BioAssay (NCI)
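How tested: cells in 96-well plates exposed to compound for 48 hours at five concentrations. At the TGI there is no net growth.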

How the values were obtained:
Test in all cases: NCI-60 cell line screen, 48 h
TK-10 renal = tested on: TK-10 renal
OVCAR-3 ovarian = tested on: OVCAR-3 ovarian
SW-620 colon = tested on: SW-620 colon
LXFL 529 NSCLC = tested on: LXFL 529 NSCLC
NCI-H460 lung = tested on: NCI-H460 lung
UO-31 renal = tested on: UO-31 renal
K-562 leukemia = tested on: K-562 leukemia
DMS 114 small cell lung = tested on: DMS 114 small cell lung
OVCAR-8 ovarian = tested on: OVCAR-8 ovarian
M14 melanoma = tested on: M14 melanoma
UACC-257 melanoma = tested on: UACC-257 melanoma
SK-MEL-2 melanoma = tested on: SK-MEL-2 melanoma
DLD-1 colon = tested on: DLD-1 colon
HOP-18 NSCLC = tested on: HOP-18 NSCLC
A498 renal = tested on: A498 renal
UACC-62 melanoma = tested on: UACC-62 melanoma
SNB-75 CNS = tested on: SNB-75 CNS
HCT-116 colon = tested on: HCT-116 colon
HL-60(TB) leukemia = tested on: HL-60(TB) leukemia
IGROV1 ovarian = tested on: IGROV1 ovarian
U251 CNS = tested on: U251 CNS
786-0 renal = tested on: 786-0 renal
XF 498 CNS = tested on: XF 498 CNS
DMS 273 small cell lung = tested on: DMS 273 small cell lung
SF-295 CNS = tested on: SF-295 CNS
OVCAR-4 ovarian = tested on: OVCAR-4 ovarian
OVCAR-5 ovarian = tested on: OVCAR-5 ovarian
SK-MEL-5 melanoma = tested on: SK-MEL-5 melanoma
KM20L2 colon = tested on: KM20L2 colon
HOP-92 NSCLC = tested on: HOP-92 NSCLC
COLO 205 colon = tested on: COLO 205 colon
KM12 colon = tested on: KM12 colon
SR leukemia = tested on: SR leukemia
M19-MEL melanoma = tested on: M19-MEL melanoma
EKVX NSCLC = tested on: EKVX NSCLC
ACHN renal = tested on: ACHN renal
SF-268 CNS = tested on: SF-268 CNS
A549 NSCLC = tested on: A549 NSCLC
NCI-H522 lung = tested on: NCI-H522 lung
SNB-19 CNS = tested on: SNB-19 CNS
HT29 colon = tested on: HT29 colon
SF-539 CNS = tested on: SF-539 CNS
MALME-3M melanoma = tested on: MALME-3M melanoma
SK-OV-3 ovarian = tested on: SK-OV-3 ovarian
LOX IMVI melanoma = tested on: LOX IMVI melanoma
NCI-H23 lung = tested on: NCI-H23 lung
MOLT-4 leukemia = tested on: MOLT-4 leukemia
SN12C renal = tested on: SN12C renal
CCRF-CEM leukemia = tested on: CCRF-CEM leukemia
HCC-2998 colon = tested on: HCC-2998 colon
RPMI-8226 leukemia = tested on: RPMI-8226 leukemia
SNB-78 CNS = tested on: SNB-78 CNS
NCI-H226 lung = tested on: NCI-H226 lung
HOP-62 NSCLC = tested on: HOP-62 NSCLC
CAKI-1 renal = tested on: CAKI-1 renal
SK-MEL-28 melanoma = tested on: SK-MEL-28 melanoma
RXF 393 renal = tested on: RXF 393 renal
HCT-15 colon = tested on: HCT-15 colon

COC[C@@H]1[C@H]2OC(C)(C)O[C@H]2C(=O)N1C(=O)c1ccc(OC)cc1
TGI (TK-10 renal): > 100 µM | TGI (OVCAR-3 ovarian): > 100 µM | TGI (SW-620 colon): > 100 µM | TGI (LXFL 529 NSCLC): > 100 µM | TGI (NCI-H460 lung): > 100 µM | TGI (UO-31 renal): > 100 µM | TGI (K-562 leukemia): > 100 µM | TGI (DMS 114 small cell lung): > 100 µM | TGI (OVCAR-8 ovarian): > 100 µM | TGI (M14 melanoma): > 100 µM | TGI (UACC-257 melanoma): > 100 µM | TGI (SK-MEL-2 melanoma): > 100 µM | TGI (DLD-1 colon): > 100 µM | TGI (HOP-18 NSCLC): > 100 µM | TGI (A498 renal): > 100 µM | TGI (UACC-62 melanoma): > 100 µM | TGI (SNB-75 CNS): > 100 µM | TGI (HCT-116 colon): > 100 µM | TGI (HL-60(TB) leukemia): > 100 µM | TGI (IGROV1 ovarian): > 100 µM | TGI (U251 CNS): > 100 µM | TGI (786-0 renal): > 100 µM | TGI (XF 498 CNS): > 100 µM | TGI (DMS 273 small cell lung): > 100 µM | TGI (SF-295 CNS): > 100 µM | TGI (OVCAR-4 ovarian): > 100 µM | TGI (OVCAR-5 ovarian): > 100 µM | TGI (SK-MEL-5 melanoma): > 100 µM | TGI (KM20L2 colon): > 100 µM | TGI (HOP-92 NSCLC): > 100 µM | TGI (COLO 205 colon): > 100 µM | TGI (KM12 colon): > 100 µM | TGI (SR leukemia): > 100 µM | TGI (M19-MEL melanoma): > 100 µM | TGI (EKVX NSCLC): > 100 µM | TGI (ACHN renal): > 100 µM | TGI (SF-268 CNS): > 100 µM | TGI (A549 NSCLC): > 100 µM | TGI (NCI-H522 lung): > 100 µM | TGI (SNB-19 CNS): > 100 µM | TGI (HT29 colon): > 100 µM | TGI (SF-539 CNS): > 100 µM | TGI (MALME-3M melanoma): > 100 µM | TGI (SK-OV-3 ovarian): > 100 µM | TGI (LOX IMVI melanoma): > 100 µM | TGI (NCI-H23 lung): > 100 µM | TGI (MOLT-4 leukemia): > 100 µM | TGI (SN12C renal): > 100 µM | TGI (CCRF-CEM leukemia): > 100 µM | TGI (HCC-2998 colon): > 100 µM | TGI (RPMI-8226 leukemia): > 100 µM | TGI (SNB-78 CNS): > 100 µM | TGI (NCI-H226 lung): > 100 µM | TGI (HOP-62 NSCLC): > 100 µM | TGI (CAKI-1 renal): > 100 µM | TGI (SK-MEL-28 melanoma): > 100 µM | TGI (RXF 393 renal): > 100 µM | TGI (HCT-15 colon): > 100 µM

C/C(CC(=O)Nc1ccc(Cl)c(Cl)c1)=N/NC(=O)C[N+](C)(C)C
TGI (TK-10 renal): > 100 µM | TGI (OVCAR-3 ovarian): > 100 µM | TGI (LXFL 529 NSCLC): > 100 µM | TGI (NCI-H460 lung): > 100 µM | TGI (UO-31 renal): > 100 µM | TGI (K-562 leukemia): > 100 µM | TGI (DMS 114 small cell lung): 55.6 µM | TGI (OVCAR-8 ovarian): > 100 µM | TGI (M14 melanoma): > 100 µM | TGI (UACC-257 melanoma): > 100 µM | TGI (SK-MEL-2 melanoma): > 100 µM | TGI (DLD-1 colon): > 100 µM | TGI (HOP-18 NSCLC): > 100 µM | TGI (A498 renal): > 100 µM | TGI (UACC-62 melanoma): > 100 µM | TGI (SNB-75 CNS): > 100 µM | TGI (HCT-116 colon): > 100 µM | TGI (HL-60(TB) leukemia): > 100 µM | TGI (IGROV1 ovarian): > 100 µM | TGI (786-0 renal): > 100 µM | TGI (XF 498 CNS): > 100 µM | TGI (DMS 273 small cell lung): > 100 µM | TGI (SF-295 CNS): > 100 µM | TGI (OVCAR-4 ovarian): > 100 µM | TGI (OVCAR-5 ovarian): > 100 µM | TGI (SK-MEL-5 melanoma): > 100 µM | TGI (KM20L2 colon): > 100 µM | TGI (HOP-92 NSCLC): > 100 µM | TGI (COLO 205 colon): > 100 µM | TGI (KM12 colon): > 100 µM | TGI (SR leukemia): 43.2 µM | TGI (M19-MEL melanoma): > 100 µM | TGI (EKVX NSCLC): > 100 µM | TGI (ACHN renal): > 100 µM | TGI (SF-268 CNS): > 100 µM | TGI (A549 NSCLC): > 100 µM | TGI (SNB-19 CNS): > 100 µM | TGI (HT29 colon): > 100 µM | TGI (SF-539 CNS): > 100 µM | TGI (MALME-3M melanoma): > 100 µM | TGI (LOX IMVI melanoma): 35.5 µM | TGI (NCI-H23 lung): > 100 µM | TGI (MOLT-4 leukemia): > 100 µM | TGI (SN12C renal): > 100 µM | TGI (CCRF-CEM leukemia): > 100 µM | TGI (HCC-2998 colon): > 100 µM | TGI (RPMI-8226 leukemia): 63.4 µM | TGI (SNB-78 CNS): > 100 µM | TGI (NCI-H226 lung): > 100 µM | TGI (HOP-62 NSCLC): > 100 µM | TGI (CAKI-1 renal): > 100 µM | TGI (SK-MEL-28 melanoma): > 100 µM | TGI (RXF 393 renal): > 100 µM | TGI (HCT-15 colon): > 100 µM
